Laboratory results: patent US20050261264A1, “Rare-earth ternary complex” (priority 2000, published 2005)

What was measured:
Assay type in all cases: physicochemical
[1] = Miscibility with solvents, visual evaluation at 5 wt %; parameters: key: ⊚: dissolves at room temperature; ◯: dissolves when heated for 5 minutes at 40° C.; Δ: dissolves under heating, but cooling precipitates crystals; X: does not dissolve; details: complex added at 5 wt %
Description: (§1) The miscibility of the rare earth complex with various media was evaluated as follows.
1) Miscibility with Solvents

[2] = Miscibility with a polymer matrix, visual evaluation; parameters: key to Miscibility, PMMA: ⊚: dissolves up to 30 wt %; ◯: dissolves up to 5 wt %; Δ: disperses up to 5 wt %, but there is turbidity; X: repelled at the polymer surface
Description: as §1
2) Miscibility with a Polymer Matrix
The rare earth complex serving as the sample was added in the concentrations listed with the evaluation criteria below relative to various media, and the miscibility was visually evaluated according to the following criteria. • ⊚: dissolves up to 30 wt % • ◯: dissolves up to 5 wt % • Δ: disperses up to 5 wt %, but there is turbidity • X: repelled at the polymer surface

[3] = Luminescence quantum yield and luminescence intensity in solution
Description: (§2) The intensity of luminescence and the luminescence quantum yield, the quotient of dividing the number of photons emitted from a sample by the number of photons absorbed into the sample, were measured with an SS-25 from JASCO Corporation.
The luminescence quantum yield of an acetonitrile solution of the Eu(PMS)3(TPPO)8 obtained in Example 1 (europium ion concentration: 0.05 mol/L) was measured (excitation wavelength: 465 nm, maximum luminescence wavelength: 612 nm, luminescence wavelength used in measurement: 612 nm).
The solutions prepared in Examples 12 to 14 and Comparative Examples 7 to 9 and Comparative Example B were measured for luminescence intensity at the respective maximum luminescence wavelengths.
The relative luminescence intensity of the solutions used in Examples 12 to 14 and Comparative Example B: (luminescence intensity in each of Examples 12 to 14)/(luminescence intensity in Comparative Example 7) was calculated, letting 1 be the luminescence intensity in Comparative Example 7 (solution of a rare earth complex in which the ligand Z was not coordinated).
Similarly, the relative luminescence intensity in Comparative Example 9: (luminescence intensity in Comparative Example 9)/(luminescence intensity in Comparative Example 8) was calculated, letting 1 be the luminescence intensity in Comparative Example 8 (solution of a known β-diketone-type of rare earth complex in which the ligand Z was not coordinated). The relative luminescence intensity of the solution used in Comparative Example B was 1.6 times.
The luminescence quantum yield of an acetone-d6 solution of the Nd(PMS)3(TPPO)8 obtained in Example 2 (neodymium ion concentration: 0.05 mol/L) was measured (excitation wavelength: 585 nm, maximum luminescence wavelength: 1064 nm, luminescence wavelength used in measurement: 1064 nm).
The solutions prepared in Examples 15 and 16 and Comparative Examples 10 were measured for luminescence intensity at the respective maximum luminescence wavelengths. The relative luminescence intensity in Examples 15 and 16: (luminescence intensity in each of Examples 15 and 16)/(luminescence intensity in Comparative Example 10) was calculated, letting 1 be the luminescence intensity in Comparative Example 10 (rare earth complex in which the ligand Z was not coordinated).

[4] = Number of moles of bound water per mole of complex (TG-DTA); details: for Bound water (number of moles of bound water per mole of complex): Table 1, dried samples for the ternary complexes
Description: The number of moles of bound water per mole of complex was measured using a TG-DTA 2000 from MAC Science.
A 20 g quantity of Eu(PMS)3 was added to 100 mL of isopropanol, then 43 g ([…] the molar amount of the Eu(PMS)3) of triphenylphosphine oxide (hereinafter referred to as TPPO) was added, and the system was refluxed for 3 hours, and then gradually cooled. The resulting white powder was filtered off. The white powder thus obtained was washed with hot n-hexane, and recrystallized with water-methanol to obtain 44 g of Eu(PMS)3(TPPO)8 in the form of white acicular crystals (yield: 85%). The TG-DTA was measured for these crystals, and it was found from the weight reduction at 100° C. that the number of moles of bound water per mole of complex was 2.93. The IR, NMR, UV absorption characteristics, and elemental analysis results for the obtained Eu(PMS)3(TPPO)8(H2O)2.93 are given below.
Eu(PMS)3(TPPO)8(H2O)2.93 obtained by the above synthesis method was dried in vacuo for 3 hours at 140° C. and a reduced pressure of […]. TG-DTA measurement for the resulting white powder was carried out to obtain a weight reduction at 100° C. It was found from the obtained value that the number of moles of bound water per mole of complex was 0.18.

[5] = Luminescence quantum yield and luminescence intensity in PMMA polymer matrix composition; details: PMMA rod; for Luminescence quantum yield: rare earth ion 0.7 wt %
Description: as §2
A 1 mL quantity of refined anhydrous methyl methacrylate (MMA), 0.5 mg of AIBN, and 148 mg (0.7 wt %) as the rare earth ion concentration) of the Eu (PMS)3 (TPPO)8 obtained in Example 1 were mixed, the mixture was transferred to a Pyrex tube, and the inside of the tube was deaerated and then sealed. By reacting for 5 hours at 60° C., the polymerization of MMA was carried out. The resulting PMMA containing Eu(PMS)3 (TPPO)8 was taken out of the Pyrex tube, and a rod-shaped polymer matrix composition was obtained.
(§3) The polymer matrix compositions prepared in Examples 17 to 19 and Comparative Example 11 were measured for luminescence intensity at the respective maximum luminescence wavelengths. The relative luminescence intensity in Examples 17 to 19: (luminescence intensity in each of Examples 17 to 19)/(luminescence intensity in Comparative Example 11) was calculated, letting 1 be the luminescence intensity in Comparative Example 11 (rare earth complex in which the ligand Z was not coordinated).
A rod-shaped polymer matrix composition containing […] was obtained in the same manner as in Example 17, except that 148 mg (rare earth ion concentration: 0.7 wt %) of the Nd(PMS)3 (TPPO)8 obtained in Example 2 was used instead of Eu(PMS)3 (TPPO)8.
as §3, with “20 and 21” for “17 to 19”, “12” for “11”, “20 and 21:” for “17 to 19:”, “20 and 21)/(luminescence” for “17 to 19)/(luminescence”, “12)” for “11)”

[6] = Mechanoluminescence of polycarbonate film hit with a metal rod; details: polycarbonate film about 6 μm thick, visual
Description: The rare earth ternary complex of the present invention can be used as a mechanoluminescence material. The term mechanoluminescence as used here refers to a phenomenon whereby physical force (such as pressure, vibration energy or the like) imparted to the rare earth ternary complex is converted into optical energy, causing the complex to emit light.
A 50 mg quantity of the Eu(PMS)3(Phen)m obtained in Example 8 and 450 mg of polycarbonate were dissolved in 3 mL of methylene chloride and then uniformly stirred to obtain a polymer solution. This polymer solution was then cast onto a glass plate, after which it was dried in vacuo overnight to remove the solvent, forming a polycarbonate film containing Eu(PMS)3(Phen)m, which is about 6 μm thick, on the glass plate.
A polycarbonate film containing Eu(PMS)3, which is about 6 μm thick, was formed on a glass plate in the same manner as in Example 22, except that 42 mg of the Eu(PMS)3 prepared in Producing Example 1 was used instead of Eu(PMS)3 (Phen) m.

[7] = acetone-d6 solution, Nd 0.05 mol/L, relative to Nd(PMS)3 (Comparative Example 10) = 1
[8] = acetone-d6 solution, neodymium ion 0.05 mol/L, excitation 585 nm, luminescence 1064 nm
[9] = Nd 0.7 wt %, relative to Nd(PMS)3 (Comparative Example 12) = 1
[10] = excitation 585 nm, luminescence 1064 nm
[11] = before drying (crystals as obtained), weight reduction at 100° C.
[12] = acetonitrile solution, Eu 0.05 mol/L, relative to Eu(PMS)3 (Comparative Example 7) = 1
[13] = acetonitrile solution, europium ion 0.05 mol/L, excitation 465 nm, luminescence 612 nm
[14] = Eu 0.7 wt %, relative to Eu(PMS)3 (Comparative Example 11) = 1
[15] = excitation 465 nm, luminescence 612 nm

Compound	Miscibility, Acetone [1]	Miscibility, Chloroform [1]	Miscibility, Toluene [1]	Miscibility, Water [1]	Miscibility, Epoxy resin [2]	Miscibility, Nafion [2]	Miscibility, PMMA [2]	Relative luminescence intensity [3, 7]	Luminescence quantum yield [3, 8] [%]	Bound water (number of moles of bound water per mole of complex) [4]	Relative luminescence intensity [5, 9]	Luminescence quantum yield [5, 10] [%]	Number of moles of bound water per mole of complex ([4]; after drying in vacuo at 140° C.)	Number of moles of bound water per mole of complex [4, 11]	Relative luminescence intensity [3, 12]	Luminescence quantum yield [3, 13] [%]	Relative luminescence intensity [5, 14]	Luminescence quantum yield [5, 15] [%]	Light emission when film is hit with a metal rod (mechanoluminescence) [6]
O=S(=O)([N-]S(=O)(=O)C(F)(F)F)C(F)(F)F.O=S(=O)([N-]S(=O)(=O)C(F)(F)F)C(F)(F)F.O=S(=O)([N-]S(=O)(=O)C(F)(F)F)C(F)(F)F.[Nd+3] [Nd(PMS)3, reference compound]	⊚	X	X	⊚	Δ (disperses up to 5 wt %, but there is turbidity)	Δ (disperses up to 5 wt %, but there is turbidity)	X	1.0	0.8	2.32	1.0	<0.1							
O=S(=O)([N-]S(=O)(=O)C(F)(F)F)C(F)(F)F.O=S(=O)([N-]S(=O)(=O)C(F)(F)F)C(F)(F)F.O=S(=O)([N-]S(=O)(=O)C(F)(F)F)C(F)(F)F.O=S(c1ccccc1)c1ccccc1.O=S(c1ccccc1)c1ccccc1.O=S(c1ccccc1)c1ccccc1.O=S(c1ccccc1)c1ccccc1.O=S(c1ccccc1)c1ccccc1.O=S(c1ccccc1)c1ccccc1.O=S(c1ccccc1)c1ccccc1.O=S(c1ccccc1)c1ccccc1.[Nd+3] [Nd(PMS)3(DPSO)8]	⊚	◯	◯	X	◯ (dissolves up to 5 wt %)	◯ (dissolves up to 5 wt %)	◯ (dissolves up to 5 wt %)	1.6	1.3	0.00	90	0.9							
O=P(c1ccccc1)(c1ccccc1)c1ccccc1.O=P(c1ccccc1)(c1ccccc1)c1ccccc1.O=P(c1ccccc1)(c1ccccc1)c1ccccc1.O=P(c1ccccc1)(c1ccccc1)c1ccccc1.O=P(c1ccccc1)(c1ccccc1)c1ccccc1.O=P(c1ccccc1)(c1ccccc1)c1ccccc1.O=P(c1ccccc1)(c1ccccc1)c1ccccc1.O=P(c1ccccc1)(c1ccccc1)c1ccccc1.O=S(=O)([N-]S(=O)(=O)C(F)(F)F)C(F)(F)F.O=S(=O)([N-]S(=O)(=O)C(F)(F)F)C(F)(F)F.O=S(=O)([N-]S(=O)(=O)C(F)(F)F)C(F)(F)F.[Nd+3] [Nd(PMS)3(TPPO)8]	⊚	⊚	◯	X	◯ (dissolves up to 5 wt %)	◯ (dissolves up to 5 wt %)	◯ (dissolves up to 5 wt %)	1.4	1.1	0.24	80	0.8	0.24	3.41					
O=S(=O)([N-]S(=O)(=O)C(F)(F)F)C(F)(F)F.O=S(=O)([N-]S(=O)(=O)C(F)(F)F)C(F)(F)F.O=S(=O)([N-]S(=O)(=O)C(F)(F)F)C(F)(F)F.O=S(c1ccccc1)c1ccccc1.O=S(c1ccccc1)c1ccccc1.O=S(c1ccccc1)c1ccccc1.O=S(c1ccccc1)c1ccccc1.O=S(c1ccccc1)c1ccccc1.O=S(c1ccccc1)c1ccccc1.O=S(c1ccccc1)c1ccccc1.O=S(c1ccccc1)c1ccccc1.[Eu+3] [Eu(PMS)3(DPSO)8]	⊚	◯	◯	X	◯ (dissolves up to 5 wt %)	◯ (dissolves up to 5 wt %)	◯ (dissolves up to 5 wt %)			0.00				water was not coordinated	41.7	32.0	710	39.0	
O=S(=O)([N-]S(=O)(=O)C(F)(F)F)C(F)(F)F.O=S(=O)([N-]S(=O)(=O)C(F)(F)F)C(F)(F)F.O=S(=O)([N-]S(=O)(=O)C(F)(F)F)C(F)(F)F.[Eu+3] [Eu(PMS)3, reference compound]	⊚	X	X	⊚	Δ (disperses up to 5 wt %, but there is turbidity)	Δ (disperses up to 5 wt %, but there is turbidity)	X			2.08					1.0	5.0	1.0	2.5	no light emission was noted
